Reference: PubChem BioAssay (NCI)
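Values below derive from 48-hour exposures of cells grown in 96-well plates, with endpoints linearly interpolated between the two concentrations bracketing the appropriate inhibition level. At the TGI there is no net growth.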

How the values were obtained:
Assay in all cases: NCI-60 cell line screen, 48 h
SK-MEL-28 melanoma = test system: SK-MEL-28 melanoma
SNB-75 CNS = test system: SNB-75 CNS
OVCAR-5 ovarian = test system: OVCAR-5 ovarian
HCC-2998 colon = test system: HCC-2998 colon
EKVX NSCLC = test system: EKVX NSCLC
A549 NSCLC = test system: A549 NSCLC
UACC-257 melanoma = test system: UACC-257 melanoma
NCI-H522 lung = test system: NCI-H522 lung
RXF-631 renal = test system: RXF-631 renal
SK-OV-3 ovarian = test system: SK-OV-3 ovarian
HT29 colon = test system: HT29 colon
U251 CNS = test system: U251 CNS
OVCAR-8 ovarian = test system: OVCAR-8 ovarian
HOP-18 NSCLC = test system: HOP-18 NSCLC
DLD-1 colon = test system: DLD-1 colon
DMS 114 small cell lung = test system: DMS 114 small cell lung
SK-MEL-5 melanoma = test system: SK-MEL-5 melanoma
786-0 renal = test system: 786-0 renal
SN12C renal = test system: SN12C renal
HOP-62 NSCLC = test system: HOP-62 NSCLC
TK-10 renal = test system: TK-10 renal
LXFL 529 NSCLC = test system: LXFL 529 NSCLC
M19-MEL melanoma = test system: M19-MEL melanoma
OVCAR-3 ovarian = test system: OVCAR-3 ovarian
K-562 leukemia = test system: K-562 leukemia
KM12 colon = test system: KM12 colon
HL-60(TB) leukemia = test system: HL-60(TB) leukemia
NCI-H226 lung = test system: NCI-H226 lung
SNB-19 CNS = test system: SNB-19 CNS
A498 renal = test system: A498 renal
CCRF-CEM leukemia = test system: CCRF-CEM leukemia
UACC-62 melanoma = test system: UACC-62 melanoma
NCI-H460 lung = test system: NCI-H460 lung
KM20L2 colon = test system: KM20L2 colon
HCT-15 colon = test system: HCT-15 colon
M14 melanoma = test system: M14 melanoma
COLO 205 colon = test system: COLO 205 colon
MALME-3M melanoma = test system: MALME-3M melanoma
IGROV1 ovarian = test system: IGROV1 ovarian
SW-620 colon = test system: SW-620 colon
HCT-116 colon = test system: HCT-116 colon
SF-295 CNS = test system: SF-295 CNS
CAKI-1 renal = test system: CAKI-1 renal
RXF 393 renal = test system: RXF 393 renal
OVCAR-4 ovarian = test system: OVCAR-4 ovarian
UO-31 renal = test system: UO-31 renal
ACHN renal = test system: ACHN renal
SF-539 CNS = test system: SF-539 CNS
XF 498 CNS = test system: XF 498 CNS
LOX IMVI melanoma = test system: LOX IMVI melanoma
NCI-H23 lung = test system: NCI-H23 lung
HOP-92 NSCLC = test system: HOP-92 NSCLC
SF-268 CNS = test system: SF-268 CNS

Measured: TGI

COc1cc(C(=O)C/C(CCC(=O)Nc2ccc(Cl)cc2Cl)=N/NC(=O)C(=O)NN)ccc1O
> 100 µM: all assays above
